This is an account of results in US20150164930A1, “USE OF ARGINASE INHIBITORS IN THE TREATMENT OF ASTHMA AND ALLERGIC RHINITIS” (RIJKSUNIVERSITEIT GRONINGEN, priority 2006, published 2015).

What all share (format): in vivo
Assay [1] deals with guinea pig model of allergic asthma (ovalbumin-sensitized, airway responsiveness to inhaled histamine). Nature of the assay: Reversal of allergen-induced AHR in guinea pig model of allergic asthma (reversion protocol). The note with it: for effect on allergen-induced AHR after the EAR (histamine PC100): inhalation at 5.5 h after ovalbumin; for effect on allergen-induced AHR after the EAR (histamine PC100) / effect on allergen-induced AHR after the LAR (histamine PC100) / effect on basal airway responsiveness to inhaled histamine (PC100): ABH 25 mM, L- or D-arginine 1 M nebulizer concentration; for effect on allergen-induced AHR after the LAR (histamine PC100): inhalation at 23.5 h after ovalbumin; for effect on basal airway responsiveness to inhaled histamine (PC100): inhaled 15 min, PC100 30 min before and after inhalation. The source says:
(§1) Outbred male specified pathogen free Dunkin Hartley guinea pigs (Harlan Heathfield, UK) were used in this example. All animals, weighing approximately 250 g, were actively IgE-sensitized to ovalbumin as described by Van Amsterdam et al. [Agents Actions 1989, 26:48-51]. The animals were operated on 2 weeks after sensitization and used experimentally in weeks 4 and 5 after sensitization. The animals were housed in individual cages in climate controlled animal quarters and given water and food ad libitum, while a 12 h on/12 h off light cycle was maintained. All protocols described in this study were approved by the University of Groningen Committee for Animal Experimentation.
(§2) Airway function was assessed by on-line measurement of pleural pressure (Ppl) under unrestrained conditions as described previously [Santing et al., Pulm Pharmacol 1992, 5:265-272; Meurs et al., Nature Protocols 2006, 1:840-847].
(§3) In short, a small fluid filled latex balloon catheter was surgically implanted inside the thoracic cavity. The free end of the catheter was driven subcutaneously to the neck of the animal, where it was exposed and attached permanently. Via an external fluid filled cannula, the pleural balloon catheter was connected to a pressure transducer (TXX R, Viggo-Spectramed, Bilthoven, Netherlands). Ppl (in cm H2O) was measured continuously using an on-line computer system.
(§4) Allergen and histamine provocations were performed by inhalation of aerosolized solutions. These provocations were carried out in a specially designed perspex cage of 9 l, in which the guinea pigs could move freely as previously described [Santing et al.; Meurs et al., both supra]. A DeVilbiss nebulizer (type 646) driven by an airflow of 8 l/min provided the aerosol with an output of 0.33 ml/min. The animals were habituated to the experimental conditions and the provocations procedure at least one week after surgery, when preoperative weight was restored, as described previously [Meurs et al, supra].
(§5) On the experimental days following the habituation procedure, allergen and/or histamine provocations were performed as described below. All provocations were preceded by an adaptation period of at least 30 min, followed by two consecutive control provocations with saline, each provocation lasting 3 min and separated by 7 min intervals. A baseline Ppl value was calculated by averaging the Ppl values from the last 20 min of the adaptation period.
(§6) In order to assess the airway reactivity for histamine, provocations with increasing concentration steps (6.25, 12.5, 25, 50, 75, 100 and 125 μg/ml) in saline were performed. Histamine provocations lasted 3 min and were separated by 7 min intervals. Animals were challenged until Ppl was increased by more than 100% above baseline for at least 3 consecutive minutes. The concentration of histamine causing a 100% increase of Ppl (PC 100) was derived by linear interpolation of the concentration Ppl curve and was used as an index for airway reactivity towards histamine. Ppl returned to baseline within 15 min after the last histamine provocation.
(§7) Allergen provocations were performed by inhalation of increasing concentrations of 0.5, 1.0 or 3.0 mg/ml ovalbumin in saline and were discontinued when the first signs of respiratory distress were observed and an increase in Ppl of more than 100% was reached.
On two different occasions, separated by one week interval, guinea pigs were treated either with vehicle (saline) or drug (ABH, L-arginine or D-arginine), to establish the acute effects of these drugs on basal airway responsiveness to histamine as well as on allergen-induced airway hyperresponsiveness (AHR) after the EAR and the LAR (FIG. 2).
On the first experimental day, saline- or drug induced effects on basal histamine reactivity were established. Thirty minutes after the assessment of the basal histamine PC100, an aerosol of saline (control) or 25 mM ABH, 1.0 M L-arginine or 1.0 M D-arginine (nebulizer concentrations) was inhaled for 15 min. […]

The test system of assay [2] is guinea pig model of allergic asthma (ovalbumin-sensitized). As to the kind of experiment: Prevention of allergen-induced AHR by pretreatment, animals challenged with increasing allergen doses until obstruction (protection protocol).
Text: as §1, §2, §3, §4, §5, §6, §7
On the first experimental day, the basal histamine PC100 was assessed. The next day, saline was inhaled for 15 min, 0.5 h prior to and at 8 h after allergen inhalation, and histamine PC100 measurements were performed 6 and 24 h post allergen challenge. One week later, the same protocol was repeated with inhalations of either 25 mM ABH (nebulizer concentration) or saline at t=−0.5 and 8 h. All animals were challenged with increasing doses of allergen (0.5, 1 and 3 mg/ml) until obstruction. […]

Assay [3] shares this test system. As to the kind of experiment: Prevention of allergen-induced EAR, LAR and AHR by pretreatment, equal allergen dose for both treatment groups (protection protocol, second experiment).
Text: as §1, §2, §3, §4, §5, §6, §7
In a second experiment, animals were challenged once with allergen. On the first experimental day, the basal histamine PC100 was assessed. The next day, animals were pretreated with either saline or ABH (25 mM; nebulizer concentration) 0.5 h before and 8 h after allergen inhalation. The ABH pretreated animals were challenged with the same allergen dose that caused airway obstruction in the saline treated guinea pigs. […]

The mark [4] stands for this setting: ABH 25 mM nebulizer 0.5 h before and 8 h after allergen, equal allergen dose, mean ± SEM.

Molecules are shown by their SMILES.

As for `N[C@@H](CCCCB(O)O)C(=O)O` [ABH, 2(S)-amino-6-boronohexanoic acid], the “allergen-induced AHR after the EAR, PC100 ratio pre/post challenge” value in assay [1] (after ABH inhalation (25 mM nebulizer) at 5.5 h after ovalbumin, PC100 at 6 h, from 4.77±0.56-fold before inhalation, P<0.001) was 2.04±0.34 fold. Besides, the “allergen-induced AHR after the LAR, PC100 ratio pre/post challenge” value in assay [1] (after ABH inhalation (25 mM nebulizer) at 23.5 h after ovalbumin, PC100 at 24 h, from 1.95±0.23-fold before inhalation, P<0.10) worked out at 1.56±0.47 fold. Also, in assay [1], the “effect on allergen-induced AHR after the EAR (histamine PC100)” value (“effect … after the EAR (histamine PC100)” below) is recorded as “reversed the allergen-induced AHR after the EAR”, the “effect on allergen-induced AHR after the LAR (histamine PC100)” value (“effect … after the LAR (histamine PC100)” below) is “trend towards a reduction” and the “effect on basal airway responsiveness to inhaled histamine (PC100)” value (“effect on basal airway responsiveness” below) is given as “without effect”. Further, the “protection against the AHR after the EAR as compared to saline control” value in assay [2] (25 mM ABH 0.5 h before allergen challenge) is reported as “significant protection”. For the same molecule, in assay [2] (ABH 25 mM nebulizer 0.5 h before and 8 h after allergen, challenged until obstruction, saline control 2.08±0.31-fold, P<0.005), the “allergen-induced AHR after the LAR, PC100 ratio pre/post challenge” value is 1.41±0.25 fold. For the same molecule, the “allergen-induced AHR after the EAR, PC100 ratio pre/post challenge” value in assay [2] (ABH 25 mM nebulizer 0.5 h before and 8 h after allergen, challenged until obstruction, saline control week 1 6.33±1.30-fold, P<0.05) worked out at 3.05±0.51 fold. Besides, the “fold higher ovalbumin needed to induce airways obstruction compared to saline treatment” value in assay [2] (ABH week 2 versus saline of the same animals week 1) amounted to 32.8 fold. The “occurrence of AHR after the LAR” value in assay [2] (additional inhalation of 25 mM ABH at 8 h after allergen challenge) is “almost completely prevented”. The “ovalbumin dose needed to induce airways obstruction” value in assay [2] (after pretreatment with ABH 25 mM nebulizer in week 2, saline in same animals week 1 0.04±0.01 mg, P<0.01) was 1.31 ± 0.69 mg. In addition, in assay [3] (setting [4]), the “AUC EAR (% change in Ppl time response curve between 0 and 5 h after allergen exposure)” value worked out at 983 ± 345 % × 5 min; the “AUC LAR (% change in Ppl time response curve between 8 and 24 h after allergen exposure)” value was 1697 ± 1043 % × 5 min. For the same molecule, the “initial peak response in Ppl after allergen challenge (allergen-induced acute bronchial obstruction)” value in assay [3] (ABH 25 mM nebulizer versus saline at the same allergen dose, P<0.01) is recorded as “highly significant reduction”. For the same molecule, the “allergen-induced AHR after the LAR” value in assay [3] (equal allergen dose, saline treated 1.68±0.14-fold, P<0.005) is on record as 1.02±0.02 fold. Moreover, in assay [3] (equal allergen dose, saline treated 4.14±0.59-fold, P<0.01), the “allergen-induced AHR after the EAR” value amounted to 1.58±0.24 fold. Further, in assay [3] (histamine PC100 24 h before and 6 h after allergen, ABH 25 mM nebulizer 0.5 h before and 8 h after allergen, equal allergen dose), the “AHR100 (PC100 ratio pre/post allergen challenge) after EAR” value is on record as 1.58 ± 0.24. Further, the “AHR100 (PC100 ratio pre/post allergen challenge) after LAR” value in assay [3] (histamine PC100 24 h before and 24 h after allergen, ABH 25 mM nebulizer 0.5 h before and 8 h after allergen, equal allergen dose) is reported as 1.02.

`N=C(N)NCCC[C@@H](N)C(=O)O` [D enantiomer of arginine, D-arginine]: in assay [1], the “effect … after the EAR (histamine PC100)” value was “did not affect”, the “effect … after the LAR (histamine PC100)” value is recorded as “did not affect” and the “effect on basal airway responsiveness” value is on record as “did not affect”.

Regarding `N=C(N)NCCC[C@H](N)C(=O)O` [L-arginine], in assay [1], the “effect … after the EAR (histamine PC100)” value was “reversed to a similar extent as with ABH”, the “effect … after the LAR (histamine PC100)” value is recorded as “reversed to a similar extent as with ABH” and the “effect on basal airway responsiveness” value was “did not affect”.
